# Reference: patent US20230226040A1, “COMBINATION THERAPY COMPRISING AN FGFR INHIBITOR AND A KRAS INHIBITOR” (Incyte Corporation, priority 2021, published 2023)
# Tests used:
# H358 = assay: 5-day Cell Titer Glo combination matrix, Bliss score; assay type: cell-based; settings: H358 (Lung, Epithelial), 5 days
# Procedure: Cells were seeded in RPMI medium with 10% HI FBS at a density of 500 cells/well in Greiner, white, clear bottom, 384-well tissue culture treated plates containing 10×10 combination matrices of compound. Plates were incubated at 37° C., 5% CO2 for 5 days. On day 5, Cell Titer Glo reagent was added to the plates and ATP luminescence was detected using a Pherastar FSX reader. The synergy score for the combination effect was calculated using a Bliss score model where the Bliss score=Yab-(Ya+Yb−(YaYb))×100, where Ya and Yb are the monotherapies. Bliss scores >20 are strongly synergistic and a higher Bliss scores indicates a higher level of synergism.
# Cells were seeded in RPMI medium with 10% HI FBS at a density of 500 cells/well in Greiner, white, clear bottom, 384-well tissue culture treated plates containing 10×10 combination matrices of compound. Plates were incubated at 37° C., 5% CO2 for 5 days. On day 5, Cell Titer Glo reagent was added to the plates and ATP luminescence was detected using a Pherastar FSX reader. Synergy score for the combination effect is calculated using a Bliss score model where the Bliss score=Yab−(Ya+Yb−(YaYb))×100, where Ya and Yb are the monotherapies. Bliss scores >20 are strongly synergistic and a higher Bliss scores indicates a higher level of synergism.
# Cells were seeded in RPMI medium with 10% HI FBS at a density of 500 cells/well in Greiner, white, clear bottom, 384-well tissue culture treated plates containing 10×10 combination matrices of compound. Plates were incubated at 37° C., 5% CO2 for 5 days. On day 5, Cell Titer Glo reagent was added to the plates and ATP luminescence was detected using a Pherastar FSX reader. The synergy score for the combination effect was calculated using a Bliss score model where the Bliss score=Yab−(Ya+Yb−(YaYb))×100, where Ya and Yb are the monotherapies. Bliss scores >20 are strongly synergistic and a higher Bliss scores indicates a higher level of synergism.
# [1] = test system: MiaPaca2 KRAS G12C resistant clone 11; assay: 5-day Cell Titer Glo viability and Bliss score; assay type: cell-based
# Procedure: For G12C resistant clone generation, MiaPaca2 parent cells were cultured with increasing concentrations of AMG510 (up to 1μM) over time. The viable cells were re-fed fresh media containing AMG510 weekly. Once the AMG510 resistant cells were growing at normal rates in the presence of 1μM AMG510, they were cloned by limiting dilution. Eight clones were selected for continued passage and further experiments.
# [2] = CLONE 11, G12C i 111 nM + Pemi 1 μM, 5-day CTG
smiles,measurement,setting,value
"CCN1C(=O)N(c2c(F)c(OC)cc(OC)c2F)Cc2cnc3[nH]c(CN4CCOCC4)cc3c21 [Pemigatinib, 3-(2,6-difluoro-3,5-dimethoxyphenyl)-1-ethyl-8-(morpholin-4-ylmethyl)-1,3,4,7-tetrahydro-2H-pyrrolo[3′,2′:5,6]pyrido[4,3-d]pyrimidin-2-one]",Avg. Bliss Score,H358; FGFR inhibitor in combination with Cmpd 3,1.4
same,Avg. Bliss Score,H358; FGFR inhibitor in combination with MRTX849,3.7
same,"% viability, Together",[1]; [2],33.8%
same,BLISS Score,[1]; [2],24.9
same,"% viability, Pemi 1 μM","[1]; CLONE 11, Pemi alone, 5-day CTG",87.6%
same,BLISS Score,"[1]; MIA-R clone 11, Pemi 12 nM + KRAS G12C i 0.15 nM, 5 day CTG",2.35
same,BLISS Score,"[1]; MIA-R clone 11, Pemi 12 nM + KRAS G12C i 0.46 nM, 5 day CTG",11.42
same,BLISS Score,"[1]; MIA-R clone 11, Pemi 12 nM + KRAS G12C i 1.37 nM, 5 day CTG",6.90
same,BLISS Score,"[1]; MIA-R clone 11, Pemi 12 nM + KRAS G12C i 4.12 nM, 5 day CTG",11.81
same,BLISS Score,"[1]; MIA-R clone 11, Pemi 12 nM + KRAS G12C i 12.35 nM, 5 day CTG",1.32
same,BLISS Score,"[1]; MIA-R clone 11, Pemi 12 nM + KRAS G12C i 37.04 nM, 5 day CTG",5.62
same,BLISS Score,"[1]; MIA-R clone 11, Pemi 12 nM + KRAS G12C i 111.11 nM, 5 day CTG",11.57
same,BLISS Score,"[1]; MIA-R clone 11, Pemi 12 nM + KRAS G12C i 333.33 nM, 5 day CTG",−7.24
same,BLISS Score,"[1]; MIA-R clone 11, Pemi 12 nM + KRAS G12C i 1000.00 nM, 5 day CTG",1.05
same,BLISS Score,"[1]; MIA-R clone 11, Pemi 37 nM + KRAS G12C i 0.15 nM, 5 day CTG",14.47
same,BLISS Score,"[1]; MIA-R clone 11, Pemi 37 nM + KRAS G12C i 0.46 nM, 5 day CTG",6.20
same,BLISS Score,"[1]; MIA-R clone 11, Pemi 37 nM + KRAS G12C i 1.37 nM, 5 day CTG",6.05
same,BLISS Score,"[1]; MIA-R clone 11, Pemi 37 nM + KRAS G12C i 4.12 nM, 5 day CTG",20.01
same,BLISS Score,"[1]; MIA-R clone 11, Pemi 37 nM + KRAS G12C i 12.35 nM, 5 day CTG",15.07
same,BLISS Score,"[1]; MIA-R clone 11, Pemi 37 nM + KRAS G12C i 37.04 nM, 5 day CTG",10.60
same,BLISS Score,"[1]; MIA-R clone 11, Pemi 37 nM + KRAS G12C i 111.11 nM, 5 day CTG",8.39
same,BLISS Score,"[1]; MIA-R clone 11, Pemi 37 nM + KRAS G12C i 333.33 nM, 5 day CTG",−5.78
same,BLISS Score,"[1]; MIA-R clone 11, Pemi 37 nM + KRAS G12C i 1000.00 nM, 5 day CTG",4.52
same,BLISS Score,"[1]; MIA-R clone 11, Pemi 111 nM + KRAS G12C i 0.15 nM, 5 day CTG",−3.03
same,BLISS Score,"[1]; MIA-R clone 11, Pemi 111 nM + KRAS G12C i 0.46 nM, 5 day CTG",6.04
same,BLISS Score,"[1]; MIA-R clone 11, Pemi 111 nM + KRAS G12C i 1.37 nM, 5 day CTG",8.76
same,BLISS Score,"[1]; MIA-R clone 11, Pemi 111 nM + KRAS G12C i 4.12 nM, 5 day CTG",13.15
same,BLISS Score,"[1]; MIA-R clone 11, Pemi 111 nM + KRAS G12C i 12.35 nM, 5 day CTG",15.70
same,BLISS Score,"[1]; MIA-R clone 11, Pemi 111 nM + KRAS G12C i 37.04 nM, 5 day CTG",13.58
same,BLISS Score,"[1]; MIA-R clone 11, Pemi 111 nM + KRAS G12C i 111.11 nM, 5 day CTG",9.80
same,BLISS Score,"[1]; MIA-R clone 11, Pemi 111 nM + KRAS G12C i 333.33 nM, 5 day CTG",6.86
same,BLISS Score,"[1]; MIA-R clone 11, Pemi 111 nM + KRAS G12C i 1000.00 nM, 5 day CTG",3.15
same,BLISS Score,"[1]; MIA-R clone 11, Pemi 333 nM + KRAS G12C i 0.15 nM, 5 day CTG",6.68
same,BLISS Score,"[1]; MIA-R clone 11, Pemi 333 nM + KRAS G12C i 0.46 nM, 5 day CTG",20.56
same,BLISS Score,"[1]; MIA-R clone 11, Pemi 333 nM + KRAS G12C i 1.37 nM, 5 day CTG",17.83
same,BLISS Score,"[1]; MIA-R clone 11, Pemi 333 nM + KRAS G12C i 4.12 nM, 5 day CTG",34.95
same,BLISS Score,"[1]; MIA-R clone 11, Pemi 333 nM + KRAS G12C i 12.35 nM, 5 day CTG",20.46
same,BLISS Score,"[1]; MIA-R clone 11, Pemi 333 nM + KRAS G12C i 37.04 nM, 5 day CTG",24.19
same,BLISS Score,"[1]; MIA-R clone 11, Pemi 333 nM + KRAS G12C i 111.11 nM, 5 day CTG",25.28
same,BLISS Score,"[1]; MIA-R clone 11, Pemi 333 nM + KRAS G12C i 333.33 nM, 5 day CTG",14.69
same,BLISS Score,"[1]; MIA-R clone 11, Pemi 333 nM + KRAS G12C i 1000.00 nM, 5 day CTG",13.90
same,BLISS Score,"[1]; MIA-R clone 11, Pemi 1000 nM + KRAS G12C i 0.15 nM, 5 day CTG",−0.21
same,BLISS Score,"[1]; MIA-R clone 11, Pemi 1000 nM + KRAS G12C i 0.46 nM, 5 day CTG",11.01
same,BLISS Score,"[1]; MIA-R clone 11, Pemi 1000 nM + KRAS G12C i 1.37 nM, 5 day CTG",23.94
same,BLISS Score,"[1]; MIA-R clone 11, Pemi 1000 nM + KRAS G12C i 4.12 nM, 5 day CTG",31.01
same,BLISS Score,"[1]; MIA-R clone 11, Pemi 1000 nM + KRAS G12C i 12.35 nM, 5 day CTG",29.47
same,BLISS Score,"[1]; MIA-R clone 11, Pemi 1000 nM + KRAS G12C i 37.04 nM, 5 day CTG",21.52
same,BLISS Score,"[1]; MIA-R clone 11, Pemi 1000 nM + KRAS G12C i 111.11 nM, 5 day CTG",24.91
same,BLISS Score,"[1]; MIA-R clone 11, Pemi 1000 nM + KRAS G12C i 333.33 nM, 5 day CTG",20.06
same,BLISS Score,"[1]; MIA-R clone 11, Pemi 1000 nM + KRAS G12C i 1000.00 nM, 5 day CTG",21.43
